Laboratory results reported in US12605382B2, “Pharmaceutical composition for preventing, alleviating, or treating cancer containing 2,6-dichloro-4-(4-(4-hydroxycyclohexylamino)-7H- pyrrolo[2,3-d]pyrimidin-5-yl)phenol as active ingredient” (JBKLAB CO., LTD., priority 2021, dated 2026).

Assays:
Hep3B [1] = assay: WST-8 cell viability assay, hepatocellular carcinoma cell line; format: cell-based; settings: 24, 48 and 72 hours
Method: (§1) Specifically, the WST-8 assay to check the cell viability of HepG2 and Hep3B, which are hepatocellular carcinoma cell lines shown in FIGS. 7A-7C and 8A-8C, was performed as follows. HepG2 and Hep3B were each seeded in 96-well plates at the density of 5×10^3 cells/well and cultured for 24 hours. Then, Sorafenib and OPT-0139 were diluted stepwise at a twofold concentration and then treated to the plates at different concentrations, followed by culture for 24, 48, and 72 hours. […] of WST-8 solution was added to each well of the plate, and the absorbance was measured with a microplate reader using a 450 nm optical filter to measure the formazan produced by the reducing factors in living cells.
(§2) Therefore, the number of living cells could be measured by measuring absorbance.

HepG2 [2] = assay: as above; format: cell-based; settings: 24, 48 and 72 hours
Method: as §1, §2

Hep3B [3] = assay: Clonogenic assay; format: cell-based; settings: 2.5 and 5 μM, 10 days
Method: (§3) HepG2 and Hep3B were each seeded in 12-well plates at the density of 3×10^3 cells/well and cultured for 24 hours. Then, Sorafenib and the compound of Example 1 were treated thereto at 2.5 and 5 μM each and cultured for 10 days. Upon completion of the culture, the cells were washed with PBS, fixed with 37% formaldehyde, and stained with 0.01% crystal violet. After staining, the cells were washed with distilled water and the colonies of stained cells were photographed.

HepG2 [4] = assay: Clonogenic assay; format: cell-based; settings: 2.5 and 5 μM, 10 days
Method: as §3

Huh-7 = assay: Cell viability alone and in combination with sorafenib; format: cell-based, Human; settings: 1 μM alone
Method: (§4) Human liver cancer cell lines (SK Hep1 and Huh-7) were treated with control (no treatment), 0.1 μM of the compound of Example 1, 1 μM of sorafenib, and 0.1 μM of the compound of Example 1/1 μM of sorafenib, and the cell viability of SK Hep1 and Huh-7 was confirmed.

SK Hep1 = assay: as above; format: cell-based, Human; settings: 1 μM alone
Method: as §4

OVCAR-3 = assay: Cell viability alone and in combination with cisplatin; format: cell-based, Human; settings: 1 μM alone
Method: (§5) Human ovarian cancer cell lines (SKOV-3 and OVCAR-3) were treated with control (no treatment), 0.1 μM of the compound of Example 1, 1 μM of cisplatin, and 0.1 μM of the compound of Example 1/1 μM of cisplatin, and the cell viability of SKOV-3 and OVCAR-3 was confirmed.

SKOV-3 = assay: as above; format: cell-based, Human; settings: 1 μM alone
Method: as §5

SMILES	cell viability (Hep3B [1])	cell viability (HepG2 [2])	number of colonies, treated vs not treated (Hep3B [3])	number of colonies, treated vs not treated (HepG2 [4])	cell viability (Huh-7)	cell viability (SK Hep1)	cell viability (OVCAR-3)	cell viability (SKOV-3)
CNC(=O)c1cc(Oc2ccc(NC(=O)Nc3ccc(Cl)c(C(F)(F)F)c3)cc2)ccn1 [Sorafenib, reference compound]	decreased the cell viability dose and time dependently	decreased the cell viability dose and time dependently	clear difference in the number of colonies	clear difference in the number of colonies	suppressed	suppressed		
N.N.[Cl][Pt][Cl] [cisplatin, reference compound]							suppressed	suppressed
